The kinase profiling compilation of Christmann-Franck et al. (2016)

Legend:
Experiment in all cases: radiometric filter-binding kinase assay
[1] = test system: AKT2 (human), P31751 [S474D]
[2] = molecular target: CAMKK2 (human) (UniProt Q96RR4)
[3] = molecular target: CHEK1 (human) (UniProt O14757)
[4] = molecular target: CLK2 (human) (UniProt P49760)
[5] = molecular target: CSNK1D (human) (UniProt P48730)
[6] = molecular target: DYRK1A (human) (UniProt Q13627)
[7] = molecular target: EPHA4 (human) (UniProt P54764)
[8] = molecular target: HIPK3 (human) (UniProt Q9H422)
[9] = molecular target: IGF1R (human) (UniProt P08069)
[10] = molecular target: IKBKE (human) (UniProt Q14164)
[11] = molecular target: IRAK4 (human) (UniProt Q9NWZ3)
[12] = molecular target: MAP3K7 TAB1 (human) (UniProt Q15750+O43318)
[13] = molecular target: MAPK12 (human) (UniProt P53778)
[14] = molecular target: MAPK14 (human) (UniProt Q16539)
[15] = molecular target: MAPK15 (human) (UniProt Q8TD08)
[16] = molecular target: MAPK3 (human) (UniProt P27361)
[17] = molecular target: MAPKAPK2 (human) (UniProt P49137)
[18] = molecular target: MARK1 (human) (UniProt Q9P0L2)
[19] = molecular target: MARK2 (human) (UniProt Q7KZI7)
[20] = molecular target: MST4 (human) (UniProt Q9P289)
[21] = molecular target: NEK2 (human) (UniProt P51955)
[22] = molecular target: NEK6 (human) (UniProt Q9HC98)
[23] = test system: PAK2 (human), Q13177 [T402E]
[24] = molecular target: PAK4 (human) (UniProt O96013)
[25] = molecular target: PAK6 (human) (UniProt Q9NQU5)
[26] = molecular target: PAK7 (human) (UniProt Q9P286)
[27] = molecular target: PIM3 (human) (UniProt Q86V86)
[28] = molecular target: PKN2 (human) (UniProt Q16513)
[29] = molecular target: PLK1 (human) (UniProt P53350)
[30] = molecular target: RIPK2 (human) (UniProt O43353)
[31] = molecular target: RPS6KA3 KD1 KD2 (human) (UniProt P51812)
[32] = molecular target: RPS6KA5 KD1 KD2 (human) (UniProt O75582)
[33] = test system: SGK1 (human), O00141 [S422D]
[34] = molecular target: SRPK1 (human) (UniProt Q96SB4)
[35] = molecular target: PIM2 (human) (UniProt Q9P1W9)

Chain of PAK6 (human) (Q9NQU5 whole entry, looked up): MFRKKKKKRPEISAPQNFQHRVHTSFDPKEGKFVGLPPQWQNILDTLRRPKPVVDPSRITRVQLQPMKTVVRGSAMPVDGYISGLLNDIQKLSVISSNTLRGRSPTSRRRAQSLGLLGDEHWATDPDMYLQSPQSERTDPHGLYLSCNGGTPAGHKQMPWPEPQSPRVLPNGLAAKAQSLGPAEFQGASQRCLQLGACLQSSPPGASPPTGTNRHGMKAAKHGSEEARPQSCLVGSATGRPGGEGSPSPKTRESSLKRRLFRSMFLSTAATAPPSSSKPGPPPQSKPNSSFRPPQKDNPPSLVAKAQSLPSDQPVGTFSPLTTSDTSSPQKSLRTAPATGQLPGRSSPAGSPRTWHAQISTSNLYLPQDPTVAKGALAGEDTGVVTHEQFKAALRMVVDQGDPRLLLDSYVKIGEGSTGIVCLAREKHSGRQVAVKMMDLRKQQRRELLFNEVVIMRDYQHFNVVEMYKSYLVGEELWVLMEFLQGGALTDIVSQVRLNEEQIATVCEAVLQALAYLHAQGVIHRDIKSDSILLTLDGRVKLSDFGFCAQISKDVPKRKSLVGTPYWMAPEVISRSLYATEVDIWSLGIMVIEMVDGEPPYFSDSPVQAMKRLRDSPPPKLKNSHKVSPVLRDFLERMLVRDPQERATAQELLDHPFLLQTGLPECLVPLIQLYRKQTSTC
Chain of MAPK12 (human) (P53778 whole entry, looked up): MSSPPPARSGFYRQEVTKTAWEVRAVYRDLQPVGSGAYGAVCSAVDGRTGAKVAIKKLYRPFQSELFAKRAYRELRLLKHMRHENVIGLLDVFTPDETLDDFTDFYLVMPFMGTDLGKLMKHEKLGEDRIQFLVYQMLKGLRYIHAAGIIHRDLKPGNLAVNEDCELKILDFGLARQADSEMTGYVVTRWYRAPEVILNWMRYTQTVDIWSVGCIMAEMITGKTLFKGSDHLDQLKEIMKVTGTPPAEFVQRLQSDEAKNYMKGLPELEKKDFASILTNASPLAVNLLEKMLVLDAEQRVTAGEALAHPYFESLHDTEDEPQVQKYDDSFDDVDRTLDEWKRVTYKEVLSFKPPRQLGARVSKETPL
Chain of PLK1 (human) (P53350 whole entry, looked up): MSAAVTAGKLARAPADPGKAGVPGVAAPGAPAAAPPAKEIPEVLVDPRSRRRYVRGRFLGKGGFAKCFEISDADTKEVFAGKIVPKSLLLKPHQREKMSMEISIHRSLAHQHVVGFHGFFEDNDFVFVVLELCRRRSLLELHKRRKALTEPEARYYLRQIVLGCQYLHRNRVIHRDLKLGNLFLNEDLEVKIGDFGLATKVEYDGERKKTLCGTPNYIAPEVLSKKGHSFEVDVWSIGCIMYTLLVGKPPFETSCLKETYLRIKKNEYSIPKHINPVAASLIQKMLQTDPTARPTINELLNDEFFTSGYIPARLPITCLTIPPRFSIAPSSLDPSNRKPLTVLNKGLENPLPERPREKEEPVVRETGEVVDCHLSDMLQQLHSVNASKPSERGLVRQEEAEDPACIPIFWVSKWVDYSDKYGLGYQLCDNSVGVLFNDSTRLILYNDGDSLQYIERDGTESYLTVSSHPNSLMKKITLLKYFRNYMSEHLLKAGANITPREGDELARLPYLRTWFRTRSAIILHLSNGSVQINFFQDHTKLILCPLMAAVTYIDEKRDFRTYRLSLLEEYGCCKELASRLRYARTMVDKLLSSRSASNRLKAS
Chain of MST4 (human) (Q9P289 whole entry, looked up): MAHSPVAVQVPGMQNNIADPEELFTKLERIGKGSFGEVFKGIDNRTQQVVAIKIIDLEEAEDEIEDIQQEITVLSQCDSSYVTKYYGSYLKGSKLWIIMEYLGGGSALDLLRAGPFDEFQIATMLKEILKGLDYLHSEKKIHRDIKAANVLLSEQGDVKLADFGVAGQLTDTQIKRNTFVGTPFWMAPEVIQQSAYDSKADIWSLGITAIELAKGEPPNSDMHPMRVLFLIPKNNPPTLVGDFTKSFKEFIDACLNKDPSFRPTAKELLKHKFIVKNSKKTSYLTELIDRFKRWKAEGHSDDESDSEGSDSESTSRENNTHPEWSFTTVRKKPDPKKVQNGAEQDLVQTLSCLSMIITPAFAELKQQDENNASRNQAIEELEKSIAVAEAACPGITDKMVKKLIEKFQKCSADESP
Chain of CSNK1D (human) (P48730 whole entry, looked up): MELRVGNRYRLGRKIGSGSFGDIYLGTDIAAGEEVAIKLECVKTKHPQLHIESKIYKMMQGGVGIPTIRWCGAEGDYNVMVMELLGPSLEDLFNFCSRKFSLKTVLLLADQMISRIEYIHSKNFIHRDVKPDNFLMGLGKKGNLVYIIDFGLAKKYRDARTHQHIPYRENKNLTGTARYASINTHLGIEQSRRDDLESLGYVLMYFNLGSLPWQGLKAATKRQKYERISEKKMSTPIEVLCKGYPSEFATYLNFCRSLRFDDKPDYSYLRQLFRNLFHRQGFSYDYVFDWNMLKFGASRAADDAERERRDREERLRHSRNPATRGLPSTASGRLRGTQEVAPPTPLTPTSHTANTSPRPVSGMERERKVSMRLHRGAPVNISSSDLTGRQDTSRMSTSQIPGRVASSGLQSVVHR
Chain of MAPK3 (human) (P27361 whole entry, looked up): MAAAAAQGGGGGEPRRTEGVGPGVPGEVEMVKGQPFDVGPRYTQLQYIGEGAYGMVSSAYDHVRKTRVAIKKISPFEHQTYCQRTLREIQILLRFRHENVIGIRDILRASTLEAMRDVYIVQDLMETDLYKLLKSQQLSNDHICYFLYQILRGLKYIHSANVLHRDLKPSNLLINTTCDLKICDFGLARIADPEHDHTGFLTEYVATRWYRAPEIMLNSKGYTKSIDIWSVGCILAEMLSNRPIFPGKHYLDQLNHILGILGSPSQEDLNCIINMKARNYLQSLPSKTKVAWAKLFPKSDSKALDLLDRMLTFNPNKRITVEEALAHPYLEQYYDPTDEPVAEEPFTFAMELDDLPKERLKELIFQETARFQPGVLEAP
Chain of NEK2 (human) (P51955 whole entry, looked up): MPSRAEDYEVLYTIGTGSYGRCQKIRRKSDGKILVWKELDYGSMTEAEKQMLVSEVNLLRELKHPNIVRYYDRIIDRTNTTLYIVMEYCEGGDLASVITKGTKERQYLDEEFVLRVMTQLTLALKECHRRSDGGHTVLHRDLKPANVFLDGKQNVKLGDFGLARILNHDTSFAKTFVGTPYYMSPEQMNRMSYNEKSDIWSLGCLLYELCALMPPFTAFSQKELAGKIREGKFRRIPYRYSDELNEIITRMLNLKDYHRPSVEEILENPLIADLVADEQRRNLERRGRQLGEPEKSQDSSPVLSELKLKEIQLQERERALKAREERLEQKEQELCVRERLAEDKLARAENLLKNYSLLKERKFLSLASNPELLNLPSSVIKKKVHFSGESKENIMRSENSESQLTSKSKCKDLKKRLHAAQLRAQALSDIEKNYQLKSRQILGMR
Chain of CAMKK2 (human) (Q96RR4 whole entry, looked up): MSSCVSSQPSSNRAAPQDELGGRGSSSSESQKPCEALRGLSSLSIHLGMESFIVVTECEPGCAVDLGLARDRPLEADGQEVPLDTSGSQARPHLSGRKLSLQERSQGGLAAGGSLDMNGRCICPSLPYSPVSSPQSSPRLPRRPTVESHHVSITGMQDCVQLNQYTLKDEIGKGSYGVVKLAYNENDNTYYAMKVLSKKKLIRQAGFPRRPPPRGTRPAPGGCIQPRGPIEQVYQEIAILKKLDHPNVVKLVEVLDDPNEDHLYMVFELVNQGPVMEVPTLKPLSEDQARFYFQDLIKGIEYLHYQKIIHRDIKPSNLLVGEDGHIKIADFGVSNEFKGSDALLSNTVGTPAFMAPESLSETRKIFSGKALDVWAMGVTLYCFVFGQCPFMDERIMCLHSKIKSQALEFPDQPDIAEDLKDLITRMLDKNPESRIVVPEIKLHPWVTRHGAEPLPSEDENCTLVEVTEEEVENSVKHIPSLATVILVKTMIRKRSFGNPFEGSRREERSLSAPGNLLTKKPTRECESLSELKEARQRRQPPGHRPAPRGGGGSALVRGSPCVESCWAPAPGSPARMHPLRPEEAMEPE
Chain of PAK7 (human) (Q9P286 whole entry, looked up): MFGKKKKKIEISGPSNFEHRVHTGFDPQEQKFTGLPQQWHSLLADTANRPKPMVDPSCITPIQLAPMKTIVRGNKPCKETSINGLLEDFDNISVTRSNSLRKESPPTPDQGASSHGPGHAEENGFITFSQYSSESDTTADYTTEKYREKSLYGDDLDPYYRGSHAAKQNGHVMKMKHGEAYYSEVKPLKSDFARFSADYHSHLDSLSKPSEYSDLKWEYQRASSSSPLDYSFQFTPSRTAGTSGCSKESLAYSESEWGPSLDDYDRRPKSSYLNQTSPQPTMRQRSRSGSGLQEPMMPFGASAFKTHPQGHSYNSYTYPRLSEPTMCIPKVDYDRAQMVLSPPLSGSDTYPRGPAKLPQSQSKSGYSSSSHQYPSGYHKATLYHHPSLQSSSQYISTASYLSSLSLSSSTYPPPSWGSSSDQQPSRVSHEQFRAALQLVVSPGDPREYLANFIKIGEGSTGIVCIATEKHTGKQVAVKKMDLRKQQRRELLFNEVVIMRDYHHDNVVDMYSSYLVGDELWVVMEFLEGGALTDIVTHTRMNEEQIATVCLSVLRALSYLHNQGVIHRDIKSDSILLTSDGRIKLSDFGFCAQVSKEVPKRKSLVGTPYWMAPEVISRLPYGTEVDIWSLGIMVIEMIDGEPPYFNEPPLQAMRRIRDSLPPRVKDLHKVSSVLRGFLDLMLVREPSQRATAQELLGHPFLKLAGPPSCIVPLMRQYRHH
Chain of NEK6 (human) (Q9HC98 whole entry, looked up): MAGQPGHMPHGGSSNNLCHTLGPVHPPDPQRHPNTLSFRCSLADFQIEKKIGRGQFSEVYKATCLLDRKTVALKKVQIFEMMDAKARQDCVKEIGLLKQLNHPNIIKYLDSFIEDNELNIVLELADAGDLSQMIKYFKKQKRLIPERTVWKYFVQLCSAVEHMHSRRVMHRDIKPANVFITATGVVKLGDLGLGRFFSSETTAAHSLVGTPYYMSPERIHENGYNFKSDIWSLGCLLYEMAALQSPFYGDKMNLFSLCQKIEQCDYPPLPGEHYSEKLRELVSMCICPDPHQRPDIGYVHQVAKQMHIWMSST

With `O=C(NOC[C@H](O)CO)c1ccc(F)c(F)c1Nc1ccc(I)cc1Cl` the residual activity ([1]; compound 1.0 µM) was 95%, the residual activity ([1]; compound 10.0 µM) was 82% and the residual activity ([2]; compound 1.0 µM) was 92%. For the same compound, the residual activity ([2]; compound 10.0 µM) was 94%, the residual activity ([3]; compound 1.0 µM) was 130% and the residual activity ([3]; compound 10.0 µM) was 122%. For the same compound, the residual activity ([4]; compound 1.0 µM) was 103%, the residual activity ([4]; compound 10.0 µM) was 85% and the residual activity ([5]; compound 1.0 µM) was 89%. The residual activity ([5]; compound 10.0 µM) was 101%, the residual activity ([6]; compound 1.0 µM) was 94% and the residual activity ([6]; compound 10.0 µM) was 104%. It also gave a residual activity ([7]; compound 1.0 µM) of 86%, a residual activity ([7]; compound 10.0 µM) of 89% and a residual activity ([8]; compound 1.0 µM) of 101%. For the same compound, the residual activity ([8]; compound 10.0 µM) was 107%, the residual activity ([9]; compound 1.0 µM) was 88% and the residual activity ([9]; compound 10.0 µM) was 113%. For the same compound, the residual activity ([10]; compound 1.0 µM) was 103%, the residual activity ([10]; compound 10.0 µM) was 111% and the residual activity ([11]; compound 1.0 µM) was 81%. It also gave a residual activity ([11]; compound 10.0 µM) of 100%, a residual activity ([12]; compound 1.0 µM) of 77% and a residual activity ([12]; compound 10.0 µM) of 82%. The residual activity ([13]; compound 1.0 µM) was 91%, the residual activity ([13]; compound 10.0 µM) was 98% and the residual activity ([14]; compound 1.0 µM) was 96%. For the same compound, the residual activity ([14]; compound 10.0 µM) was 97%, the residual activity ([15]; compound 1.0 µM) was 104% and the residual activity ([15]; compound 10.0 µM) was 96%. It also gave a residual activity ([16]; compound 1.0 µM) of 88%, a residual activity ([16]; compound 10.0 µM) of 106% and a residual activity ([17]; compound 1.0 µM) of 103%. For the same compound, the residual activity ([17]; compound 10.0 µM) was 102%, the residual activity ([18]; compound 1.0 µM) was 85% and the residual activity ([18]; compound 10.0 µM) was 85%. It also gave a residual activity ([19]; compound 1.0 µM) of 104%, a residual activity ([19]; compound 10.0 µM) of 103% and a residual activity ([20]; compound 1.0 µM) of 103%. It also gave a residual activity ([20]; compound 10.0 µM) of 104%, a residual activity ([21]; compound 1.0 µM) of 97% and a residual activity ([21]; compound 10.0 µM) of 102%. The residual activity ([22]; compound 1.0 µM) was 95%, the residual activity ([22]; compound 10.0 µM) was 110% and the residual activity ([23]; compound 10.0 µM) was 91%. For the same compound, the residual activity ([24]; compound 10.0 µM) was 65%, the residual activity ([25]; compound 1.0 µM) was 95% and the residual activity ([25]; compound 10.0 µM) was 105%. The residual activity ([26]; compound 1.0 µM) was 104%, the residual activity ([26]; compound 10.0 µM) was 85% and the residual activity ([27]; compound 1.0 µM) was 78%. For the same compound, the residual activity ([27]; compound 10.0 µM) was 72%, the residual activity ([28]; compound 1.0 µM) was 82% and the residual activity ([28]; compound 10.0 µM) was 83%. It also gave a residual activity ([29]; compound 1.0 µM) of 81%, a residual activity ([29]; compound 10.0 µM) of 92% and a residual activity ([30]; compound 1.0 µM) of 99%. It also gave a residual activity ([30]; compound 10.0 µM) of 100%, a residual activity ([31]; compound 1.0 µM) of 104% and a residual activity ([31]; compound 10.0 µM) of 92%. For the same compound, the residual activity ([32]; compound 1.0 µM) was 97%, the residual activity ([32]; compound 10.0 µM) was 96% and the residual activity ([33]; compound 1.0 µM) was 69%. For the same compound, the residual activity ([33]; compound 10.0 µM) was 74%, the residual activity ([34]; compound 1.0 µM) was 80% and the residual activity ([34]; compound 10.0 µM) was 95%.

For `O=S(=O)(c1ccc(F)c2nonc12)N1CCN(c2ncc(C(F)(F)F)cc2Cl)CC1`, the residual activity ([1]; compound 10.0 µM) was 84%, the residual activity ([2]; compound 10.0 µM) was 83% and the residual activity ([3]; compound 10.0 µM) was 96%. It also gave a residual activity ([4]; compound 10.0 µM) of 95%, a residual activity ([5]; compound 10.0 µM) of 79% and a residual activity ([6]; compound 10.0 µM) of 72%. For the same compound, the residual activity ([7]; compound 10.0 µM) was 90%, the residual activity ([8]; compound 10.0 µM) was 101% and the residual activity ([9]; compound 10.0 µM) was 93%. The residual activity ([11]; compound 10.0 µM) was 66%, the residual activity ([12]; compound 10.0 µM) was 98% and the residual activity ([13]; compound 10.0 µM) was 72%. For the same compound, the residual activity ([14]; compound 10.0 µM) was 74%, the residual activity ([15]; compound 10.0 µM) was 79% and the residual activity ([16]; compound 10.0 µM) was 86%. The residual activity ([17]; compound 10.0 µM) was 86%, the residual activity ([18]; compound 10.0 µM) was 109% and the residual activity ([19]; compound 10.0 µM) was 95%. It also gave a residual activity ([20]; compound 10.0 µM) of 104%, a residual activity ([21]; compound 10.0 µM) of 102% and a residual activity ([22]; compound 10.0 µM) of 78%. It also gave a residual activity ([23]; compound 10.0 µM) of 98%, a residual activity ([24]; compound 10.0 µM) of 83% and a residual activity ([25]; compound 10.0 µM) of 109%. It also gave a residual activity ([26]; compound 10.0 µM) of 92%, a residual activity ([35]; compound 10.0 µM) of 97% and a residual activity ([27]; compound 10.0 µM) of 116%. The residual activity ([28]; compound 10.0 µM) was 69%, the residual activity ([29]; compound 10.0 µM) was 99% and the residual activity ([30]; compound 10.0 µM) was 109%. It also gave a residual activity ([31]; compound 10.0 µM) of 86%, a residual activity ([33]; compound 10.0 µM) of 70% and a residual activity ([34]; compound 10.0 µM) of 82%.

With `CN1CCN(CCOc2cc(OC3CCOCC3)c3c(Nc4c(Cl)ccc5c4OCO5)ncnc3c2)CC1` the residual activity ([1]; compound 0.1 µM) was 86%, the residual activity ([2]; compound 0.1 µM) was 95% and the residual activity ([3]; compound 0.1 µM) was 106%. For the same compound, the residual activity ([4]; compound 0.1 µM) was 111%, the residual activity ([5]; compound 0.1 µM) was 115% and the residual activity ([6]; compound 0.1 µM) was 94%. For the same compound, the residual activity ([7]; compound 0.1 µM) was 49%, the residual activity ([8]; compound 0.1 µM) was 101% and the residual activity ([9]; compound 0.1 µM) was 97%. The residual activity ([10]; compound 0.1 µM) was 88%, the residual activity ([11]; compound 0.1 µM) was 100% and the residual activity ([12]; compound 0.1 µM) was 115%. It also gave a residual activity ([13]; compound 0.1 µM) of 94%, a residual activity ([14]; compound 0.1 µM) of 108% and a residual activity ([15]; compound 0.1 µM) of 134%. For the same compound, the residual activity ([16]; compound 0.1 µM) was 93%, the residual activity ([18]; compound 0.1 µM) was 101% and the residual activity ([19]; compound 0.1 µM) was 90%. The residual activity ([20]; compound 0.1 µM) was 104%, the residual activity ([21]; compound 0.1 µM) was 94% and the residual activity ([22]; compound 0.1 µM) was 101%. It also gave a residual activity ([23]; compound 0.1 µM) of 94%, a residual activity ([24]; compound 0.1 µM) of 99% and a residual activity ([25]; compound 0.1 µM) of 90%. For the same compound, the residual activity ([26]; compound 0.1 µM) was 98%, the residual activity ([35]; compound 0.1 µM) was 105% and the residual activity ([27]; compound 0.1 µM) was 111%. It also gave a residual activity ([28]; compound 0.1 µM) of 103%, a residual activity ([29]; compound 0.1 µM) of 96% and a residual activity ([30]; compound 0.1 µM) of 9%. For the same compound, the residual activity ([32]; compound 0.1 µM) was 103%, the residual activity ([33]; compound 0.1 µM) was 112% and the residual activity ([34]; compound 0.1 µM) was 82%.
